What was measured:
Format in all cases: cell-based, murine
[1] = test system: B3Z cells; assay: Direct treatment of B3Z cells; settings: BzFβ alone; data not shown
[2] = test system: DC2.4 cells (B3Z activation); assay: Pathway inhibitor studies in DC2.4/B3Z assay; settings: DC2.4, 3 μg/mL BFA, 25 μg/mL BzFβ 6 h, 0.5 nM SIINFEKL
Procedure: […]. The cytotoxicity of all inhibitors was assessed using CellTiter96 Aqueous One (Promega (Madison WI, USA); cat. no. G3580).
. The cells were then washed 2× before addition of BzFβ. Cells exposed to the other inhibitors were incubated with an appropriate concentration of each inhibitor, seen in Table 1 in cDMEM at 37° C., 5% CO2. […]. Cells were then incubated for 6 h. Before B3Z addition the inhibitor and BzFβ were removed, and the cells washed with warm DPBS. If testing peptide presentation, the DC2.4 cells were pulsed with 0.5 nM […] for 1 h prior to being cocultured with B3Z.

[3] = test system: MHC class I H-2Kb on DC2.4; assay: Surface MHC class I H-2Kb on DC2.4 (AF6-88.5.5.3 flow cytometry); settings: DC2.4, 25 μg/mL
Procedure: (§1) By using an MHC class I H-2K^b specific antibody, a relative comparison of the surface MHC class I was measured before and after BzFβ treatment of DC2.4 and IMG cells. […] Cells were centrifuged and washed using cold FACS buffer (DPBS with 5% FBS, 2 mM EDTA, 0.1% sodium azide). Cells were blocked with Fc block (bioLegend™; cat. no. 101320) for 10 min to 15 min to inhibit non-specific binding, followed by staining with fluorophore-conjugated antibodies; one set of cells was stained with the PE-labeled MHC/SIINFEKL specific antibody (clone 25-D1.16, Invitrogen™, Thermo Fisher Scientific Inc., Waltham, MA; cat. no. 12-5743-82), and the other set was stained with the PE-labeled MHC class I H-2Kb specific antibody (AF6-88.5.5.3,Invitrogen™, Thermo Fisher Scientific Inc., Waltham, MA; cat. no. 12-5958-82) PE-labeled MHC class I H-2kb specific (clone AF6-88.5.5.3; Invitrogen™, Thermo Fisher Scientific Inc., Waltham, MA; cat. no. 12-5958-82), for 30 min at 4° C. After washing, the cells were subjected to flow cytometric analysis with the Attune NxT Flow Cytometer (Invitrogen). Cells were gated based on live single-cell populations and positives were assessed using isotype controls and fluor-minus-one analysis when needed. Data were analyzed using the Attune NxT software or FlowJo versions 10.7 and 10.8.

[4] = test system: DC2.4 cells presenting SIINFEKL to B3Z CD8+ T cell hybridoma; assay: B3Z activation by SIINFEKL-pulsed DC2.4 (CPRG β-gal assay)
Procedure: DC2.4 cells (2.5×10^4 cells/well) were seeded at 100 μL/well in 96 well tissue culture white sided/white bottom plate and incubated overnight to allow for cell adherence. 37° C. in an atmosphere containing 5% CO2 and 95% humidity. Following pre-treatment of the DC2.4 cells (1-24 h) with escalating doses of the test molecules, the cells were washed, pulsed with 0.5 nM of the MHC class I H-2Kb peptide, SIINFEKL, for 1 h, and then co-cultured with the CD8+ T cell hybridoma, B3Z.
The level of B3Z cell activation and the effects of the various test molecules on B3Z activation were quantified in cell lysates using the β-gal chromogenic substrate, CPRG. The media was removed and 100 μL of 250 μM CPRG reconstituted in the lysis buffer (1×DPBS, 0.2% v/v saponin, 20 mM magnesium chloride) was added directly to each well. Cells were maintained at 37° C. prior to measurement. The absorbance at 560 nm (700 nm for background) was intermittently monitored using a BioTek Synergy HTX multimode microplate reader (Winooski, VT) to detect β-gal activity. CPRG lysis buffer and B3Z cells only served as the negative controls. All treatments were performed in triplicate and all experiments were repeated a minimum of three times.
Activation of B3Z T cell hybridoma cells was assessed following their exposure to various MHC class I H-2K^b positive cell lines presenting the SIINFEKL peptide. B3Z are a CD8+ SIINFEKL peptide specific T-cell hybridoma expressing a beta-galactosidase (β-gal) reporter gene driven by NF-AT elements on the interleukin 2 (IL-2) promoter. […] Activation of B3Z leads to production of β-gal whose presence can be quantified using the optimized detection assay described by Jendresen et al. (Jendresen, et al., An improved CPRG colorimetric ligand-receptor signal transduction assay based on beta-galactosidase activity in mammalian BWZ-reporter cells. J Pharmacol Toxicol Methods. 2018 March-April; 90:67-75).
To stimulate β-gal production in the B3Z, the H-2Kb murine cell lines, DC2.4, B16F10, and E.G7-OVA, or freshly isolated murine splenocytes, were plated at a density of 2.5 or 5×10^4 cells/well (100 μL/well in 96 well plates) and cultured overnight at 37° C. in an atmosphere containing 5% CO2 and 95% humidity. The cells were washed with DPBS and then treated for 1-24 h with the indicated concentrations of BzFβ suspended in complete media. Vehicle controls were always included. […]
To detect activation of the B3Z cells, the media was removed and 100 μL of 250 µM CPRG reconstituted in the lysis buffer (1×DPBS, 0.2% v/v saponin, 20 mM magnesium chloride) was added directly to each well. […] The absorbance at 560 nm (700 nm for background) was intermittently monitored using a BioTek Synergy HTX multimode microplate reader (Winooski, VT) to detect β-gal activity. […]

[5] = test system: MHC class I H-2Kb on IMG cells; assay: Surface MHC class I H-2Kb on IMG cells (AF6-88.5.5.3 flow cytometry); settings: 25 μg/mL
Procedure: as §1

## O=C(O)/C=C/c1ccc2occc2c1 [BzFβ, (2E)-3-(1-benzofuran-5-yl)prop-2-enoic acid]
[1]
  effect of direct treatment on B3Z viability or activation: no effect on cell viability or cell activation
[2]
  B3Z activation with SIINFEKL in presence of BFA: unaffected
[3]; 1-4 h
  overall surface expression (MFI) of MHC class I: no significant effect
[3]; 24 h
  overall surface expression (MFI) of MHC class I: significant increase
[4]; co-treatment 1 h, 25 μg/mL BzFβ, 15 pM to 1 nM SIINFEKL, 19 h coculture
  B3Z response versus peptide pulsed DC2.4 alone: significantly greater
[4]; peptide pulsed DC2.4
  time to significantly enhanced B3Z activation: 5 min
[5]; 1-4 h
  overall surface expression (MFI) of MHC class I: no significant effect
[5]; 24 h
  overall surface expression (MFI) of MHC class I: significant increase

— US20250381165A1, “Method of Use for Benzofuran Compounds” (Tampa Bay Research Institute, Inc., priority 2024, published 2025)
